Source: PubChem BioAssay AID1033 (Sanford-Burnham Center for Chemical Genomics, 2008)
The source made the active and inactive calls. The rule behind the calls is not given here.

Target: Chaperone protein DnaK (Escherichia coli (strain K12)) (UniProt P0A6Y8)
Assay: binders of DnaK substrate-binding domain, biophysical, NMR, chaperone (AID 1033)
Conditions: Purified DnaK SBD, NMR ligand binding

Sequence of Chaperone protein DnaK (Escherichia coli (strain K12)) (P0A6Y8 whole entry, looked up, the tested form may be a part): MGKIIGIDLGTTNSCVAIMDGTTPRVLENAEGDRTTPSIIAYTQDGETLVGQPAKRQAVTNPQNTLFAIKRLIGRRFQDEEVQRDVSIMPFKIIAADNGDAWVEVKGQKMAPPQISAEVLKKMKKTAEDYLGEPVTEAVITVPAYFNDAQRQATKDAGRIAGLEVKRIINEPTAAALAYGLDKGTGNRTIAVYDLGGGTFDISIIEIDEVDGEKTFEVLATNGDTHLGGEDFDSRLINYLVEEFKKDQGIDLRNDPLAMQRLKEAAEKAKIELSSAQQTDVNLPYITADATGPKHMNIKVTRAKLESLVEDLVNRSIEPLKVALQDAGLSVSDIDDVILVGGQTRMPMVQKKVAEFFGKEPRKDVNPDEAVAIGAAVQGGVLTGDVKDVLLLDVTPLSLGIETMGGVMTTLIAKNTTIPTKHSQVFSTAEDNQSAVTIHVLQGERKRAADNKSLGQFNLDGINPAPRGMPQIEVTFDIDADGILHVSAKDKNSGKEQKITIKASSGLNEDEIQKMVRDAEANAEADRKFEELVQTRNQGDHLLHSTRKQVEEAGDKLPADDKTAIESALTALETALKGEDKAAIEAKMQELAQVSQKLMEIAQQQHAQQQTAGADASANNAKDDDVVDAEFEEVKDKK

## O=C(O)CCn1cncn1
  Kd: > 4 mM (inactive)

## COC(=O)C[C@H]1C(C)(C)C(=O)[C@@H]2CC3=C4CC(=O)O[C@@H](c5ccoc5)[C@]4(C)CCC3C1(C)C2=O (stereo partly specified)
  Kd: > 4 mM (inactive)

## Cc1c(C)n2c(SCC(N)=O)nnc2[nH]c1=O
  Kd: > 4 mM (inactive)

## COC(=O)c1ccc2snnc2c1
  Kd: > 4 mM (inactive)

## Cc1occc1C(=O)Nc1ccc(C(N)=O)cc1
  Kd: > 4 mM (inactive)

## CCN1CCC2(CC1)CC1CC3C=CC1(CN2C(C)=O)O3 (stereo unspecified)
  Kd: > 4 mM (inactive)

## Cc1ccc(S(C)(=O)=O)s1
  Kd: > 4 mM (inactive)

## O=C(Nc1cccc(C(F)(F)F)c1)c1cccnc1
  Kd: > 4 mM (inactive)

## COc1ccc(-c2cc(=O)c3c(O)cc(O)c(-c4cc(-c5cc(=O)c6c(O)cc(O)cc6o5)ccc4OC)c3o2)cc1
  Kd: > 4 mM (inactive)

## NC(=O)CS(=O)(=O)c1ccc(Cl)cc1
  Kd: > 4 mM (inactive)

## CC(C)=CC1C(CO)C1(C)C (stereo unspecified)
  Kd: > 4 mM (inactive)

## CC(=O)O[C@@H]1CC2C(C)(C)C(=O)[C@@H]3O[C@@H]3[C@]2(C)C2CC[C@]3(C)C(=CC(=O)O[C@H]3c3ccoc3)[C@@]21C (stereo partly specified)
  Kd: > 4 mM (inactive)

## Cc1sc2nc(C)n(NC(N)=O)c(=O)c2c1C
  Kd: > 4 mM (inactive)

## CNC(=O)c1ccccc1N
  Kd: > 4 mM (inactive)

## O=C(NCCO)c1ccccc1I
  Kd: > 4 mM (inactive)

## CCn1nnc(NC(=O)c2cc3ccccc3o2)n1
  Kd: > 4 mM (inactive)

## O=C1C(=O)N(CN2CCN(CCO)CC2)c2ccccc21
  Kd: > 4 mM (inactive)

## O=C(O[C@@H]1Cc2c(O)cc(O)cc2O[C@@H]1c1ccc(O)c(O)c1)c1cc(O)c(O)c(O)c1
  Kd: > 4 mM (inactive)

## O=S1(=O)CCC(NC(=S)N2CCCCC2)C1 (stereo unspecified)
  Kd: > 4 mM (inactive)

## Cc1nn(-c2ccccc2)nc1C(=O)O
  Kd: > 4 mM (inactive)

## Cc1[nH]c2ccccc2c1C=Nn1cncn1
  Kd: > 4 mM (inactive)

## O=C(Nn1cnnc1)c1csc2c1CCCC2
  Kd: > 4 mM (inactive)

## COc1ccc(O)c(-c2cn[nH]c2-c2cccs2)c1
  Kd: > 4 mM (inactive)

## Cc1cc(C(=O)N2CCC3(CC2)OCCO3)cs1
  Kd: > 4 mM (inactive)

## O=S(=O)(Cc1ccc(Cl)cc1)N1CCCC1
  Kd: > 4 mM (inactive)

## O=C(Nc1ccon1)c1ccc(Br)o1
  Kd: > 4 mM (inactive)

## Cc1cc(N)n(C2CCOC(C)(C)C2)n1 (stereo unspecified)
  Kd: > 4 mM (inactive)

## C[N+](C)(C)CC(O)CC(=O)O (stereo unspecified)
  Kd: > 4 mM (inactive)

## COc1cc(-c2coc3cc(OCc4ccccc4)c(OC)c(O)c3c2=O)cc(O)c1OC
  Kd: > 4 mM (inactive)

## c1ccc(SCc2nc(-c3ccccn3)no2)cc1
  Kd: > 4 mM (inactive)

## Cc1[nH]c2ccccc2c1Cc1n[nH]c(=S)n1C
  Kd: > 4 mM (inactive)

## O=C(CSc1ncnc2ccccc12)NCCCO
  Kd: > 4 mM (inactive)

## CNC(=S)Nc1ccc2c(c1)OCO2
  Kd: > 4 mM (inactive)

## CN1CCN(C(=O)c2ccccc2C(=O)O)CC1
  Kd: > 4 mM (inactive)

## Oc1cnc2ccccc2c1CN1CCOCC1
  Kd: > 4 mM (inactive)

## NCc1cccc2nsnc12
  Kd: > 4 mM (inactive)

## Nc1cccc(C(=O)Nc2ccc(N)cc2Cl)c1
  Kd: > 4 mM (inactive)

## CCNCC(O)c1ccc([N+](=O)[O-])cc1 (stereo unspecified)
  Kd: > 4 mM (inactive)

## O=C(NC12CC3CC(CC(C3)C1)C2)c1cnccn1
  Kd: > 4 mM (inactive)

## COC(=O)C1[C@H]2C[C@H]3c4[nH]c5ccccc5c4CCN3C[C@@H]2CC[C@@H]1O (stereo partly specified)
  Kd: > 4 mM (inactive)

## O=C(CSc1ncccn1)NCc1ccco1
  Kd: > 4 mM (inactive)

## CS(=O)(=O)Cc1ccccc1
  Kd: > 4 mM (inactive)

## Cc1ccc(NC(=O)/C=C2\SC(=O)NC2=O)cc1
  Kd: > 4 mM (inactive)

## Cn1nnc2cc(C(=O)N3CCSCC3)ccc21
  Kd: > 4 mM (inactive)

## O=C(Nc1nnc(-c2cccnc2)o1)c1ccccc1F
  Kd: > 4 mM (inactive)

## CC(C)CCCC(C)C1CCC2C3CC(=O)[C@H]4C[C@@H](O)CC[C@]4(C)C3CC[C@]12C (stereo partly specified)
  Kd: > 4 mM (inactive)
